# Patent US20220304992A1, “METHODS OF REJUVENATING AGED TISSUE BY INHIBITING 15-HYDROXYPROSTAGLANDIN DEHYDROGENASE (15-PGDH)” (The Board of Trustees of the Leland Stanford Junior …, priority 2019, published 2022)
# Entries after “also recorded” stand apart in the source; their conditions may differ.
# How the values were obtained:
# myofibers = assay: Myofiber cross-sectional area and fiber typing by immunofluorescence; type: in vivo, mouse; conditions: aged mice, 1 month
# Protocol: We collected and prepared recipient Tibialis anterior (TA) or gastrocnemius (GA) muscle tissues for histology as previously described (5). We fixed transverse sections from muscles using 4% PFA, blocked and permeabilized using PBS/1% BSA/0.1% Triton X-100 and incubated with anti-LAMININ (Millipore, clone A5, catalog #05-206, 1:200) and then with AlexaFluor secondary Antibodies (Jackson ImmunoResearch Laboratories, 1:200) or wheat germ agglutinin-Alexa 647 conjugate (WGA, Thermo Fisher Scientific). We counterstained nuclei with DAPI (Invitrogen).
# We acquired images on a Zeiss 510 laser scanning confocal microscope (Carl Zeiss Microimaging) with 40x/0.9N.A. objective to capture multiple consecutive focal planes or using the KEYENCE BZ-X700 all-in-one fluorescence microscope (Keyence) with 20x/0.75 N.A. objectives. We analyzed the myofiber area using the Keyence Advanced Analysis Software. For cross sectional area the maximum cross sectional area of the muscle was quantified or at least 10 fields of LAMININ-stained myofiber cross-sections encompassing over 400 myofibers were captured for each mouse as above. […] The researchers performing the imaging acquisition and scoring were unaware of treatment condition given to sample groups analyzed. […]
# Images were acquired using KEYENCE BZ-X700 all in one fluorescence microscope with 20x/0.75 NA. objectives and individual fields were stitched and analyzed using Keyence Advanced Analysis Software.
# For cultured myotubes we performed fixation using 4% PFA, blocking and permeabilization using PBS/1% BSA/0.1% Triton X-100 and staining with primary antibodies anti-MYH (Thermo Fisher Scientific, catalog #14-6503-82, clone MF-20, 1:500) and then with AlexaFluor secondary Antibodies (Jackson ImmunoResearch Laboratories, 1:500). […] We acquired images using the KEYENCE BZ-X700 all-in-one fluorescence microscope (Keyence) with 20x/0.75 N.A. objectives. We analyzed the fiber area using the Keyence Advanced Analysis Software. […] The researchers performing the imaging acquisition and scoring were unaware of treatment condition given to sample groups analyzed.
# [1] = tested on: aged muscle transcriptome; assay: RNA sequencing of vehicle and SW treated aged muscles; type: in vivo, mouse; conditions: SW 1 month
# Source text: For RNA-seq, RNA was isolated from muscle lysates using Trizol reagent (Thermoscientific) and purified using Qiagen RNAEasy kit from. Libraries were constructed from RNA with the TruSEQ RNA Library Preparation Kit v2 (Illumina) and sequenced to 30-40×10^6×75-bp reads per sample on a NextSeq 550 from the Stanford Functional Genomics Facility.
# For the RNA-Seq analysis, the sequences were aligned against the Mus musculus genome (mm9) using STAR (16). RSEM was used for calling transcripts and calculating transcripts per million (TPM) values as well as total counts (17). A counts matrix containing the number of counts for each gene and each sample was obtained. This matrix was analyzed by DESeq2 to calculate statistical analysis of significance of genes between samples (18). […] Heatmaps were generated on normalized counts and plotted on Z-score across rows using Seaborn data visualization library in python. The data reported in this paper have been deposited in the Gene Expression Omnibus (GEO) database GSE149924.
smiles,measurement,setting,value
"CCCC[S+]([O-])c1sc2nc(-c3cccs3)cc(-c3ccccc3)c2c1N (centres unmarked) [SW033291, 2-(butylsulfinyl)-4-phenyl-6-(thiophen-2-yl)thieno[2,3-b]pyridin-3-amine]",cross-sectional area of glycolytic (type IIb) fibers,myofibers,increase
same,cross-sectional area of oxidative (type IIa) fibers,myofibers,increase
same,myofiber cross-sectional area,"myofibers; daily i.p., listed as SW",larger; also recorded: significantly augmented
same,Hdac4 expression,[1],diminished
same,"components of mitochondria complexes I, II, IV and V of the electron transport chain",[1],markedly increased
same,members of ubiquitin signaling pathways,[1],downregulated
same,mitochondrial pathways (KEGG/GO enrichment of upregulated genes),[1],strong enrichment
same,"expression of TGF-beta pathway genes (Mstn, Tgfb2, Acvr2a, Smad3)",[1]; listed as SW,decreased; also recorded: markedly reduced
